Laboratory results as given in patent publication US11253500B2, “Sanfetrinem or a salt or ester thereof for use in treating mycobacterial infection” (priority 2017, dated 2022).
≈ marks a conversion by molar mass, not a printed value. Where “and” joins values, the source holds several entries; their conditions need not be identical. Identical values can stand only once. Counter-ions that a name gives are not always drawn. Like-named read-outs stand apart in the source and are kept apart here.

How the values were obtained:
[1] = tested on: Mtb H37Rv strain; experiment: Checkerboard assay with rifampicin, ethambutol, delamanid and amoxicillin (384-well, MTT or ATP); format: cell-based, Mycobacterium tuberculosis; settings: for MICsyn_B / FIC_B: Comp B in the presence of SFT; for MIC: Mycobacterium tuberculosis, H37RV, Comp B alone (IC90); for Fold_B: MIC/MICsyn of Comp B with SFT
[2] = tested on: Mycobacterium tuberculosis growing inside human THP-1 monocytes; experiment: Intracellular viability assay (luciferase Mtb in THP-1 monocytes); format: cell-based
[3] = tested on: M. tuberculosis H37Rv; experiment: MIC determination (extracellular, resazurin); format: cell-based, Mycobacterium tuberculosis
[4] = tested on: M. tuberculosis H37Rv; experiment: In vivo anti-tubercular activity in DHP-1 KO mice; design: species or system Mycobacterium tuberculosis; settings: 129sv DHP-1 KO mice; for Lung CFU: intratracheal infection, twice a day from day 9 to day 14, lungs day 15, mean, untreated 7.4 (Day 9), 9.0 (Day 15); for Effect on bacterial growth in lung: treated day 9 to day 14
[5] = tested on: M. tuberculosis H37Rv; experiment: Checkerboard combination with amoxicillin and/or clavulanate (resazurin); format: cell-based, Mycobacterium tuberculosis
[6] = tested on: panel of twenty-three M. tuberculosis strains; experiment: microbe, parasite or virus in culture; format: cell-based, Mycobacterium tuberculosis; settings: for MIC: Mycobacterium tuberculosis
[7] = Mycobacterium tuberculosis, w/o clav, average, read-out: MIC50 μM (average w/o clav)
[8] = Mycobacterium tuberculosis, w/o clav, average, read-out: MIC90 μM (average w/o clav)
[9] = Mycobacterium tuberculosis, with clav, average, read-out: MIC50 μM (average with clav)
[10] = Mycobacterium tuberculosis, with clav, average, read-out: MIC90 μM (average with clav)
[11] = Mycobacterium tuberculosis, with clav, separate readings, read-out: MIC90 μM (with clav)
[12] = with clav, separate readings, read-out: MIC90 μM (with clav)
[13] = Mycobacterium tuberculosis, H37RV, extracellular, with 4 μg/ml potassium clavulanate, average, read-out: MIC μM (average with clav)
[14] = Mycobacterium tuberculosis, H37RV, extracellular, without clavulanate, average, read-out: MIC μM (average w/o clav)
[15] = Mycobacterium tuberculosis, H37RV, extracellular, with 4 μg/ml potassium clavulanate, separate readings, read-out: MIC μM (with clav)
[16] = Mycobacterium tuberculosis, H37RV, extracellular, without clavulanate, separate readings, read-out: MIC μM (w/o clav)
[17] = Mycobacterium tuberculosis, w/o clav, separate readings, read-out: MIC50 μM (w/o clav)
[18] = Mycobacterium tuberculosis, w/o clav, separate readings, read-out: MIC90 μM (w/o clav)
[19] = Mycobacterium tuberculosis, with clav, separate readings, read-out: MIC50 μM (with clav)
[20] = w/o clav, separate readings, read-out: MIC50 μM (w/o clav)
[21] = w/o clav, separate readings, read-out: MIC90 μM (w/o clav)
[22] = with clav, separate readings, read-out: MIC50 μM (with clav)
[23] = Mycobacterium tuberculosis, H37RV

Work on `CO[C@H]1/C=C/O[C@@]2(C)Oc3c(C)c(O)c4c(O)c(c(/C=N/N5CCN(C)CC5)c(O)c4c3C2=O)NC(=O)/C(C)=C\C=C\[C@H](C)[C@H](O)[C@@H](C)[C@@H](O)[C@@H](C)[C@H](OC(C)=O)[C@@H]1C` [RIF, Rifampicin] yielded an MICsyn_B [1] of 0.005 µM and an MIC [1] of 0.04 µM.

With `CO[C@H]1CCC[C@H]2C1=C(C(=O)OC(C)OC(=O)OC1CCCCC1)N1C(=O)[C@H]([C@@H](C)O)[C@@H]21` (mixture of isomers) [Sanfetrinem cilexetil, (1S,5S,8aS,8bR)-1-(((cyclohexyloxy)carbonyl)oxy)ethyl 1-((R)-1-hydroxyethyl)-5-methoxy-2-oxo-1,2,5,6,7,8,8a,8b-octahydroazeto[2,1-a]isoindole-4-carboxylate] the MIC50 [2, 7] was 0.85 µM (≈ 0.384 µg/mL), the MIC90 [2, 8] was 5.2 µM (≈ 2.35 µg/mL) and the MIC50 [2, 9] was 0.6 µM (≈ 0.271 µg/mL). For the same compound, the MIC90 [2, 10] was 5 µM (≈ 2.26 µg/mL), the MIC90 [2, 11] was 4.6 µM (≈ 2.08 µg/mL) and the MIC90 [2, 12] was 5.3 µM (≈ 2.39 µg/mL). For the same compound, the MIC [3, 13] was 8.6 µM, the MIC [3, 14] was 10.6 µM and the “Lung CFU” value [4] was 7.6 log CFU. For the same compound, the “Effect on bacterial growth in lung” value [4] was “preventing bacterial growth”.

`CC[C@@H](CO)NCCN[C@@H](CC)CO` [EMB, Ethambutol] was tested, and the FIC_B [1] was 0.25, the MICsyn_B [1] was 2 µM and the Fold_B [1] was 4. It also gave an MIC [1] of 8 µM.

`C[C@@H](O)[C@H]1C(=O)N2C(C(=O)O)=C(SC3CN(C4=NCCS4)C3)[C@H](C)[C@H]12` [Tebipenem] was tested, and the MIC50 [2, 7] was 4.51 µM (≈ 1.73 µg/mL), the MIC90 [2, 8] was 46.5 µM (≈ 17.8 µg/mL) and the MIC50 [2, 9] was 0.49 µM (≈ 0.188 µg/mL). For the same compound, the MIC90 [2, 10] was 3.61 µM (≈ 1.38 µg/mL), the MIC [3, 13] was 1.25 µM and the MIC [3, 15] was 1.25 µM. It also gave an MIC [3, 14] of 7.5 µM and an MIC [3, 16] of 7.5 µM.

`C[C@@H](O)[C@H]1C(=O)N2C(C(=O)O)=C(S[C@@H]3CN[C@H](C(=O)Nc4cccc(C(=O)O)c4)C3)[C@H](C)[C@H]12` [Ertapenem] was tested, and the MIC50 [2, 7] was 29.6 µM (≈ 14.1 µg/mL), the MIC90 [2, 8] was over 50 µM and the MIC50 [2, 9] was 3.84 µM (≈ 1.83 µg/mL). The MIC90 [2, 10] was 21 µM (≈ 10 µg/mL), the MIC [3, 13] was 16.7 µM and the MIC [3, 15] was 10 µM. For the same compound, the MIC [3, 14] was over 80 µM, the MIC [3, 16] was 80 µM and the MIC ([3]; extracellular, with 4 μg/ml potassium clavulanate, separate readings, read-out: MIC μM (with clav)) was 20 µM.

In the case of `C[C@@H](O)[C@H]1C(=O)N2C(C(=O)O)=C(S[C@@H]3CN[C@H](C(=O)N(C)C)C3)[C@H](C)[C@H]12` [Meropenem], the MIC50 [2, 7] is reported as 6.78 µM (≈ 2.6 µg/mL), the MIC90 [2, 8] is reported as 17 µM (≈ 6.52 µg/mL) and the MIC50 [2, 17] is reported as 8.97 µM (≈ 3.44 µg/mL). For the same compound, the MIC90 [2, 18] was 19.6 µM (≈ 7.52 µg/mL), the MIC50 [2, 9] was 1.94 µM (≈ 0.744 µg/mL) and the MIC90 [2, 10] was 5.55 µM (≈ 2.13 µg/mL). It also gave an MIC50 [2, 19] of 2.03 µM (≈ 0.778 µg/mL), an MIC90 [2, 11] of 5.39 µM (≈ 2.07 µg/mL) and an MIC50 [2, 20] of 4.6 µM (≈ 1.76 µg/mL). The MIC90 [2, 21] was 14.41 µM (≈ 5.53 µg/mL), the MIC50 [2, 22] was 1.85 µM (≈ 0.709 µg/mL) and the MIC90 [2, 12] was 5.71 µM (≈ 2.19 µg/mL). For the same compound, the MIC [3, 13] was 6.9 µM and the MIC [3, 14] was 31.7 µM.

With `CO[C@H]1CCC[C@H]2C1=C(C(=O)O)N1C(=O)[C@H]([C@@H](C)O)[C@@H]21` [Sanfetrinem (sodium salt), sodium (1S,5S,8aS,8bR)-1-((R)-1-hydroxyethyl)-5-methoxy-2-oxo-1,2,5,6,7,8,8a,8b-octahydroazeto[2,1-a]isoindole-4-carboxylate] the MIC50 [2, 7] was 1.65 µM, the MIC90 [2, 8] was 5.57 µM and the MIC50 [2, 17] was 1.32 µM. The MIC50 [2, 9] was 1.64 µM, the MIC90 [2, 10] was 7.25 µM and the MIC90 [2, 11] was 6.13 µM. The MIC50 [2, 20] was 1.64 µM and 2 µM, the MIC90 [2, 12] was 6.8 µM and 8.82 µM and the MIC ([3]; Mycobacterium tuberculosis, H37RV, read-out: MIC μM (average w/o clav), extracellular, without clavulanate, average) was 5 µM. It also gave an MIC ([3]; Mycobacterium tuberculosis, H37RV, read-out: MIC μM (average with clav), extracellular, with 4 μg/ml potassium clavulanate, average) of 2.9 µM, an IC90 [5, 23] of 1.22 µg/mL and an IC90 ([5]; Mycobacterium tuberculosis, H37RV, read-out: IC90 of sanfetrinem in combination with amoxicillin (at 10 μg/ml)) of 0.33 µg/mL. The IC90 ([5]; Mycobacterium tuberculosis, H37RV, read-out: IC90 of sanfetrinem in combination with clavulanate) was 0.55 µg/mL, the Fold_A ([1]; MIC/MICsyn of SFT with AMX) was 8 and the Fold_A ([1]; MIC/MICsyn of SFT with DLD) was 4. The Fold_A ([1]; MIC/MICsyn of SFT with EMB) was 4, the Fold_A ([1]; MIC/MICsyn of SFT with RIF) was 8 and the FIC_A ([1]; SFT in the presence of AMX) was 0.125. For the same compound, the MICsyn_A ([1]; SFT in the presence of AMX) was 0.5 µM, the FIC_A ([1]; SFT in the presence of DLD) was 0.25 and the MICsyn_A ([1]; SFT in the presence of DLD) was 0.4 µM. It also gave an FIC_A ([1]; SFT in the presence of EMB) of 0.25, an MICsyn_A ([1]; SFT in the presence of EMB) of 0.4 µM and an FIC_A ([1]; SFT in the presence of RIF) of 0.125. For the same compound, the MICsyn_A ([1]; SFT in the presence of RIF) was 0.4 µM, the FICI ([1]; combination SFT with AMX) was 0.1875 and the FICI ([1]; combination SFT with DLD) was 0.5. For the same compound, the FICI ([1]; combination SFT with EMB) was 0.5, the FICI ([1]; combination SFT with RIF) was 0.25 and the “Lung CFU” value [4] was 7.3 log CFU. The “Effect on bacterial growth in lung” value [4] was “preventing bacterial growth”, the “Sensitivity of all strains within the concentration range tested” value ([6]; MGIT 960, 23 strains, 0.5 to 20 μM) was “sensitive” and the MIC ([6]; read-out: MIC, another four strains higher) was over 5 µM. The MIC ([6]; read-out: MIC, four strains lower) was under 5 µM and the MIC ([6]; read-out: MIC, most common value) was 5 µM.

With `C[C@]1(COc2ccc(N3CCC(Oc4ccc(OC(F)(F)F)cc4)CC3)cc2)Cn2cc([N+](=O)[O-])nc2O1` [DLD, Delamanid] the FIC_B [1] was 0.25, the MICsyn_B [1] was 0.0025 µM and the Fold_B [1] was 4. For the same compound, the MIC [1] was 0.01 µM.

`C[C@@H](O)[C@H]1C(=O)N2C(C(=O)O)=C([C@H]3CCCO3)S[C@H]12` [Faropenem] showed an MIC50 [2, 7] of 1.85 µM (≈ 0.528 µg/mL), an MIC90 [2, 8] of 12.3 µM (≈ 3.52 µg/mL) and an MIC50 [2, 17] of 2.2 µM (≈ 0.628 µg/mL). For the same compound, the MIC90 [2, 18] was 14.7 µM (≈ 4.19 µg/mL), the MIC50 [2, 9] was 1.1 µM (≈ 0.314 µg/mL) and the MIC90 [2, 10] was 5.75 µM (≈ 1.64 µg/mL). The MIC50 [2, 19] was 1 µM (≈ 0.285 µg/mL), the MIC90 [2, 11] was 6.8 µM (≈ 1.94 µg/mL) and the MIC50 [2, 20] was 1.5 µM (≈ 0.428 µg/mL). For the same compound, the MIC90 [2, 21] was 10.0 µM (≈ 2.85 µg/mL), the MIC50 [2, 22] was 1.2 µM (≈ 0.342 µg/mL) and the MIC90 [2, 12] was 4.7 µM (≈ 1.34 µg/mL). The MIC [3, 13] was 8.9 µM and the MIC [3, 14] was 15.7 µM.

In the case of `O=C(O)[C@H]1/C(=C/CO)O[C@@H]2CC(=O)N21` [clavulanate, Potassium clavulanate], the Activity alone ([5]; alone) is reported as “not active”.

With `CC1(C)S[C@@H]2[C@H](NC(=O)[C@H](N)c3ccc(O)cc3)C(=O)N2[C@H]1C(=O)O` [amoxicillin] the IC80 [5, 23] was 42 µg/mL, the “Reaching 90% Inhibition” value ([5]; amoxicillin in monotherapy) was “does not reach a 90% Inhibition” and the “Reaching 90% growth inhibition” value ([5]; in combination with clavulanate) was “nor in combination with clavulanate reach the 90% growth inhibition”. It also gave an MICsyn_B [1] of 8 µM and an MIC [1] of 128 µM.
